Experimental data taken from ChEMBL document CHEMBL2363022, “Malaria Box Schistosomiasis Screening Data” (2013).

Tests used:
Format in all cases: functional
Set-up in all cases: scale not given here
Schistosoma mansoni [1] = tested on: Schistosoma mansoni
Schistosoma mansoni [2] = tested on: Schistosoma mansoni; remark: listed apart in the source
Schistosoma mansoni [3] = tested on: Schistosoma mansoni; remark: listed apart in the source

Compound | Toxicity (Schistosoma mansoni [1]) | Toxicity (Schistosoma mansoni [2]) | Toxicity (Schistosoma mansoni [3])
CCCCC(O)(c1ccc(Cl)cc1)C(CN1CCOCC1)c1ccc(Cl)cc1.Cl (configuration not stated) | 0 | 4 | 0
COc1cccc(C=Cc2nc(=O)c3ccccc3o2)c1OC | 0 | 0 | 0
Cc1ccccc1OCCSc1nc2ccc(NC(=O)c3ccccc3)cc2s1 | 0 | 0 | 0
O=C(Cc1ccccc1)NC(c1ccc(Cl)cc1)c1c(O)ccc2ccccc12 (configuration not stated) | 2 | 2 | 1
Cc1ccc(OCCCCCCNCCO)c(C)c1 | 0 | 0 | 0
C[n+]1c2ccccc2nc2ccc(NCCO)cc21 | 0 | 3 | 0
CCOC(=O)c1cnc2c(C)cccc2c1Nc1ccc(C(C)=O)cc1 | 0 | 0 | 0
COc1ccc(-c2nonc2NC(=O)c2cccc(Cl)c2)cc1OC | 0 | 0 | 0
COc1cccc(-c2nn(C)c3sc(C(=O)NCCN4CCN(c5ccccc5F)CC4)cc23)c1 | 0 | 3 | 0
Cc1ccc(CSCc2ccc(C(=O)NC3CC3)o2)cc1 | 0 | 0 | 0
Cc1ccc(S(=O)(=O)c2c(COC(=O)c3cccc(C)c3)c(-c3ccccc3)nn2C)cc1 | 0 | 0 | 0
Cc1cc(Nc2ccc(C)c(Cl)c2)n2nc(C(F)(F)F)nc2n1 | 0 | 0 | 0
CCOc1ccc2nc(C)cc(Nc3ccc(Br)cc3)c2c1 | 2 | 4 | 4
OC1=C2C(=Nc3ccccc3SC2c2ccccc2)c2ccccc21 (configuration not stated) | 0 | 0 | 0
COc1ccc(CN2CCCC(C(=O)c3ccc(C(F)(F)F)cc3)C2)c(O)c1 (configuration not stated) | 0 | 0 | 0
Cc1ccc(Nc2nc(N)c3ccccc3n2)cc1Cl | 2 | 2 | 2
Cc1cc(Nc2ccc(Cl)cc2)n2nc(C(F)(F)F)nc2n1 | 0 | 0 | 0
CCN(CC)CCNc1ccnc2cc(Cl)ccc12 | 0 | 0 | 0
CCOC(=O)c1c(C)n(-c2ccc(Cl)cc2)c2ccc(OC(=O)C=Cc3ccccc3)cc12 | 0 | 0 | 0
COc1ccc(-n2ccnc2SCC(=O)Nc2cc(C)ccc2C)c(OC)c1 | 1 | 1 | 1
Cc1cc(N2CCN(C3CCCC3)CC2)n2c(nc3ccccc32)c1C#N | 0 | 0 | 0
c1ccc(/C2=N/c3ccccc3/N=C(/c3ccccc3)c3ccccc32)cc1 | 1 | 1 | 1
O=C(Nc1ccc(CN2CCOCC2)cc1)c1ccc(-c2cc(Cl)ccc2Cl)o1 | 0 | 0 | 2

Compound | Toxicity (Schistosoma mansoni [1]) | Toxicity (Schistosoma mansoni [2]) | Toxicity (Schistosoma mansoni [3])
OC(CNCC1CCCO1)Cn1c2ccc(Cl)cc2c2cc(Cl)ccc21 (configuration not stated) | 0 | 0 | 0
FC(F)(F)c1cccc(Nc2nc3ccccc3nc2Nc2cccc(C(F)(F)F)c2)c1 | 3 | 4 | 4
O=c1nc(C=Cc2ccc(Cl)cc2)oc2ccccc12 | 2 | 0 | 0
O=C1c2ccc3c4c(ccc(c24)C(=O)N1CCCCO)C(=O)N(CCCCO)C3=O | 0 | 4 | 0
Oc1ccc(Cl)cc1CNc1nc2ccccc2[nH]1 | 0 | 0 | 0
FC(F)(F)c1ccc(Nc2nnnc3ccccc23)cc1 | 1 | 0 | 0
Br.CCn1c2c(c(=N)c3c1CCC3)CCCC2 | 0 | 0 | 0
Cc1ccc(Nc2nc(NCCO)c3ccccc3n2)cc1C | 1 | 1 | 0
OC(CNC1CCCCC1)Cn1c2ccccc2c2ccccc21 (configuration not stated) | 0 | 0 | 0
CCOc1ccc(-c2nc(NC(=O)c3cccc(S(C)(=O)=O)c3)sc2C)cc1 | 0 | 0 | 0
CCOC(=O)c1cn(CC)c2cc(N3CCCCC3)c(F)cc2c1=O | 0 | 0 | 0
O=C(NC1CCN(Cc2ccccc2)CC1)c1cc(C(=O)NC2CCN(Cc3ccccc3)CC2)cc(C(=O)NC2CCN(Cc3ccccc3)CC2)c1 | 0 | 0 | 0
CC(C)(C)c1ccc(O)c(CNC2CCCCC2)c1 | 0 | 0 | 0
CCC(C)NCC(O)(c1ccc(Cl)cc1)c1ccc(Cl)cc1 (configuration not stated) | 1 | 0 | 0
CC(=O)NCCc1nc2ccccc2n1Cc1ccc(C(C)C)cc1 | 0 | 0 | 0
COc1ccc(CN2CCN(Cc3ccccc3)CC2)c(O)c1 | 0 | 0 | 0
CCOc1ccc(C2N(C)c3ccccc3N2C)cc1 | 2 | 0 | 0
O=C(Nc1ccc(-c2nc3cc(NC(=O)c4ccc(Cl)cc4)ccc3[nH]2)cc1)c1ccc(Cl)cc1 | 1 | 0 | 0
Oc1ccc(Br)cc1CN1CCN(Cc2ccc(Cl)cc2)CC1 | 1 | 0 | 0
CCOC(=O)c1cnc2c(C)cc(C)cc2c1Nc1ccc(OC)c(OC)c1 | 0 | 0 | 2
c1ccc2cc3c(Nc4ccc(N5CCOCC5)cc4)ccnc3cc2c1 | 2 | 4 | 4
CC(=O)c1sc(NC(=O)Nc2ccc(C)cc2C)nc1C | 0 | 0 | 0
CCOC(=O)c1cnc2ccc(OC)cc2c1NCc1ccccc1 | 1 | 1 | 0

Compound | Toxicity (Schistosoma mansoni [1]) | Toxicity (Schistosoma mansoni [2]) | Toxicity (Schistosoma mansoni [3])
CCOc1c(Cl)cc(CNCC(O)c2ccccc2)cc1OC (configuration not stated) | 0 | 0 | 0
CCn1c(SCC(=O)Nc2cc(C(F)(F)F)ccc2Cl)nc2ccccc2c1=O | 0 | 0 | 0
COc1ccc(N2CCN(C(CNC(=O)CC(C)(C)C)c3ccc4c(c3)OCO4)CC2)cc1 (configuration not stated) | 0 | 0 | 0
O=C(Nc1ccc(N2CCCCC2)c(Cl)c1)c1ccc(Br)o1 | 0 | 0 | 0
O=C(NCc1ccco1)C1CCN(S(=O)(=O)c2ccc(Cl)cc2)CC1 | 0 | 0 | 0
CN(C)c1ccc(C(O)(c2ccc(N(C)C)cc2)c2ccc(N(C)C)cc2)cc1 [METHYLROSANILINE] | 2 | 4 | 2
CC1CC(C)CN(C(=O)c2ccc(Cl)cc2Cl)C1 (configuration not stated) | 0 | 0 | 0
CCOC(=O)c1cn(CC)c2cc(N(C)CCc3ccc(OC)c(OC)c3)c(F)cc2c1=O | 0 | 0 | 0
CCN1CCCC1CNc1[nH]cnc2c3cc(Cl)ccc3nc1-2 (configuration not stated) | 0 | 0 | 0
Fc1ccc2[nH]c3c(NCCCN4CCOCC4)ncnc3c2c1 | 0 | 1 | 0
c1ccc2c(NCCc3c[nH]c4ccccc34)c3ccccc3nc2c1 | 3 | 4 | 4
CN(C)c1ccc(N=Cc2ccc(N3CCOCC3)cc2)cc1 | 0 | 0 | 0
CCCN(CCC)CCCNC(=O)c1cc2c(-c3ccc(OC)c(OC)c3)nn(C)c2s1 | 0 | 3 | 0
COc1ccccc1CNC(=O)CCn1c(=O)[nH]c2ccsc2c1=O | 0 | 0 | 0
Cl.Cn1c(=O)n(C)c2cc(CNCCNc3ccnc4cc(Cl)ccc34)ccc21 | 0 | 1 | 1
CN1CCN(c2nc(Nc3ccc(O)cc3)nc3ccccc23)CC1.Cl | 0 | 0 | 0
COc1ccccc1CNC(=O)C1c2ccccc2C(=O)N(CC(C)C)C1c1cccs1 (configuration not stated) | 0 | 0 | 0
CCN1CCN(c2cc(C)c3cc(NC(=O)c4ccc(OC)c(OC)c4)ccc3n2)CC1 | 1 | 0 | 0
CCOc1cc2c(cc1OCC)C(c1cc(Cl)c(O)c(OCC)c1)NCC2 (configuration not stated) | 0 | 0 | 0
O=C(CCc1ccco1)NC1CCN(CC2(c3ccc(Cl)cc3)CCC2)CC1 | 0 | 0 | 0
Cc1ccc(Cn2c(N3CCC(C(=O)NCc4cccs4)CC3)nc3ccccc32)cc1 | 0 | 0 | 0
CCN1CCN(c2c(C(=O)c3ccccc3)cnc3cc(OC)c(OC)cc23)CC1 | 0 | 0 | 0
Cc1cc(N(C)C)nc(Nc2ccc(NC(=O)Nc3ccccc3)cc2)n1 | 0 | 3 | 3
